Assays:
Experiment in all cases: relative viability (nuclei count vs DMSO), 5 days (fraction); higher = more cells survive
HCC-15 = system: HCC-15
Outline: (§1)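 For relative viability, nuclei counts in treated wells were divided by those in vehicle wells. Lung cancer cell lines had been pin-tool dosed in 1536-well plates the day after seeding and cultured for 5 days, then fixed and stained in one step (final 0.05% Triton X-100, 1% formaldehyde, 1 ug/ml Hoechst) and imaged at 4×. Doses were one drug alone or a fixed anchor-drug dose plus five library-drug doses (not always all listed) in √10 steps, and values are duplicate-plate medians.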

LC-2-ad = system: LC-2-ad
Outline: as §1

NCI-H2126 = system: NCI-H2126
Outline: as §1

NCI-H1975 = system: NCI-H1975
Outline: as §1

SK-LU-1 = system: SK-LU-1
Outline: as §1

NCI-H522 = system: NCI-H522
Outline: as §1

NCI-H1915 = system: NCI-H1915
Outline: as §1

LXF-289 = system: LXF-289
Outline: as §1

HOP-62 = system: HOP-62
Outline: as §1

NCI-H1734 = system: NCI-H1734
Outline: as §1

NCI-H1755 = system: NCI-H1755
Outline: as §1

NCI-H2228 = system: NCI-H2228
Outline: as §1

RERF-LC-KJ = system: RERF-LC-KJ
Outline: as §1

NCI-H358 = system: NCI-H358
Outline: as §1

A-427 = system: A-427
Outline: as §1

PC-3 [JPC-3] = system: PC-3 [JPC-3]
Outline: as §1

NCI-H2342 = system: NCI-H2342
Outline: as §1

HCC-78 = system: HCC-78
Outline: as §1

NCI-H1792 = system: NCI-H1792
Outline: as §1

NCI-H2347 = system: NCI-H2347
Outline: as §1

NCI-H647 = system: NCI-H647
Outline: as §1

SW 1573 = system: SW 1573
Outline: as §1

With `CC(=O)O[C@@]12CO[C@@H]1C[C@H](O)[C@@]1(C)C(=O)[C@H](O)C3=C(C)[C@@H](OC(=O)[C@H](O)[C@@H](NC(=O)OC(C)(C)C)c4ccccc4)C[C@@](O)([C@@H](OC(=O)c4ccccc4)[C@H]21)C3(C)C` [Docetaxel] + N=C(N)NC(=N)NCCc1ccccc1 [Phenformin] (partner 250 µM) the relative viability (HCC-15; first compound 0.0002 µM) was 0.402, the relative viability (HCC-15; first compound 0.000632 µM) was 0.315 and the relative viability (HCC-15; first compound 0.002 µM) was 0.181. The relative viability (HCC-15; first compound 0.006325 µM) was 0.203, the relative viability (HCC-15; first compound 0.02 µM) was 0.113 and the relative viability (LC-2-ad; first compound 0.0002 µM) was 0.497. It also gave a relative viability (LC-2-ad; first compound 0.000632 µM) of 0.494, a relative viability (LC-2-ad; first compound 0.002 µM) of 0.327 and a relative viability (LC-2-ad; first compound 0.006325 µM) of 0.243. For the same molecule, the relative viability (NCI-H2126; first compound 0.0002 µM) was 0.517, the relative viability (NCI-H2126; first compound 0.000632 µM) was 0.468 and the relative viability (NCI-H2126; first compound 0.002 µM) was 0.297. The relative viability (NCI-H2126; first compound 0.006325 µM) was 0.33, the relative viability (NCI-H2126; first compound 0.02 µM) was 0.223 and the relative viability (NCI-H1975; first compound 0.0002 µM) was 0.406. For the same molecule, the relative viability (NCI-H1975; first compound 0.000632 µM) was 0.334, the relative viability (NCI-H1975; first compound 0.002 µM) was 0.209 and the relative viability (NCI-H1975; first compound 0.006325 µM) was 0.148. The relative viability (NCI-H1975; first compound 0.02 µM) was 0.134, the relative viability (SK-LU-1; first compound 0.0002 µM) was 0.48 and the relative viability (SK-LU-1; first compound 0.000632 µM) was 0.285. The relative viability (SK-LU-1; first compound 0.002 µM) was 0.239, the relative viability (SK-LU-1; first compound 0.006325 µM) was 0.183 and the relative viability (SK-LU-1; first compound 0.02 µM) was 0.115. The relative viability (NCI-H522; first compound 0.0002 µM) was 0.611, the relative viability (NCI-H522; first compound 0.000632 µM) was 0.433 and the relative viability (NCI-H522; first compound 0.002 µM) was 0.527. For the same molecule, the relative viability (NCI-H522; first compound 0.006325 µM) was 0.55, the relative viability (NCI-H522; first compound 0.02 µM) was 0.471 and the relative viability (NCI-H1915; first compound 0.0002 µM) was 0.364. The relative viability (NCI-H1915; first compound 0.000632 µM) was 0.312, the relative viability (NCI-H1915; first compound 0.002 µM) was 0.21 and the relative viability (NCI-H1915; first compound 0.006325 µM) was 0.147. For the same molecule, the relative viability (NCI-H1915; first compound 0.02 µM) was 0.116, the relative viability (LXF-289; first compound 0.0002 µM) was 0.521 and the relative viability (LXF-289; first compound 0.000632 µM) was 0.42. It also gave a relative viability (LXF-289; first compound 0.002 µM) of 0.127, a relative viability (LXF-289; first compound 0.006325 µM) of 0.0915 and a relative viability (LXF-289; first compound 0.02 µM) of 0.0828. The relative viability (HOP-62; first compound 0.0002 µM) was 0.671, the relative viability (HOP-62; first compound 0.000632 µM) was 0.501 and the relative viability (HOP-62; first compound 0.002 µM) was 0.322. It also gave a relative viability (NCI-H1734; first compound 0.0002 µM) of 0.296, a relative viability (NCI-H1734; first compound 0.000632 µM) of 0.338 and a relative viability (NCI-H1734; first compound 0.002 µM) of 0.232. It also gave a relative viability (NCI-H1734; first compound 0.006325 µM) of 0.221, a relative viability (NCI-H1734; first compound 0.02 µM) of 0.168 and a relative viability (NCI-H1755; first compound 0.0002 µM) of 0.621. For the same molecule, the relative viability (NCI-H1755; first compound 0.000632 µM) was 0.577, the relative viability (NCI-H1755; first compound 0.002 µM) was 0.411 and the relative viability (NCI-H1755; first compound 0.006325 µM) was 0.434. It also gave a relative viability (NCI-H1755; first compound 0.02 µM) of 0.36, a relative viability (NCI-H2228; first compound 0.0002 µM) of 0.302 and a relative viability (NCI-H2228; first compound 0.000632 µM) of 0.173. It also gave a relative viability (NCI-H2228; first compound 0.002 µM) of 0.147, a relative viability (NCI-H2228; first compound 0.006325 µM) of 0.158 and a relative viability (NCI-H2228; first compound 0.02 µM) of 0.123. The relative viability (RERF-LC-KJ; first compound 0.0002 µM) was 0.454, the relative viability (RERF-LC-KJ; first compound 0.000632 µM) was 0.405 and the relative viability (RERF-LC-KJ; first compound 0.002 µM) was 0.238. It also gave a relative viability (RERF-LC-KJ; first compound 0.006325 µM) of 0.209, a relative viability (RERF-LC-KJ; first compound 0.02 µM) of 0.195 and a relative viability (NCI-H358; first compound 0.0002 µM) of 0.247. For the same molecule, the relative viability (NCI-H358; first compound 0.000632 µM) was 0.188, the relative viability (NCI-H358; first compound 0.006325 µM) was 0.0907 and the relative viability (NCI-H358; first compound 0.02 µM) was 0.0664. The relative viability (A-427; first compound 0.0002 µM) was 0.324, the relative viability (A-427; first compound 0.000632 µM) was 0.328 and the relative viability (A-427; first compound 0.002 µM) was 0.165. It also gave a relative viability (A-427; first compound 0.006325 µM) of 0.149, a relative viability (A-427; first compound 0.02 µM) of 0.12 and a relative viability (PC-3 [JPC-3]; first compound 0.0002 µM) of 0.484. For the same molecule, the relative viability (PC-3 [JPC-3]; first compound 0.000632 µM) was 0.48, the relative viability (PC-3 [JPC-3]; first compound 0.002 µM) was 0.371 and the relative viability (PC-3 [JPC-3]; first compound 0.006325 µM) was 0.246. For the same molecule, the relative viability (PC-3 [JPC-3]; first compound 0.02 µM) was 0.138, the relative viability (NCI-H2342; first compound 0.0002 µM) was 0.478 and the relative viability (NCI-H2342; first compound 0.000632 µM) was 0.596. It also gave a relative viability (NCI-H2342; first compound 0.002 µM) of 0.625, a relative viability (NCI-H2342; first compound 0.006325 µM) of 0.4 and a relative viability (NCI-H2342; first compound 0.02 µM) of 0.343. It also gave a relative viability (HCC-78; first compound 0.0002 µM) of 0.582, a relative viability (HCC-78; first compound 0.000632 µM) of 0.615 and a relative viability (HCC-78; first compound 0.002 µM) of 0.409. It also gave a relative viability (HCC-78; first compound 0.006325 µM) of 0.371, a relative viability (HCC-78; first compound 0.02 µM) of 0.354 and a relative viability (NCI-H1792; first compound 0.0002 µM) of 0.221. It also gave a relative viability (NCI-H1792; first compound 0.000632 µM) of 0.23, a relative viability (NCI-H1792; first compound 0.002 µM) of 0.0848 and a relative viability (NCI-H1792; first compound 0.006325 µM) of 0.126. It also gave a relative viability (NCI-H1792; first compound 0.02 µM) of 0.0575, a relative viability (NCI-H2347; first compound 0.0002 µM) of 0.496 and a relative viability (NCI-H2347; first compound 0.000632 µM) of 0.303. It also gave a relative viability (NCI-H2347; first compound 0.002 µM) of 0.295, a relative viability (NCI-H2347; first compound 0.006325 µM) of 0.201 and a relative viability (NCI-H2347; first compound 0.02 µM) of 0.256. It also gave a relative viability (NCI-H647; first compound 0.0002 µM) of 0.329, a relative viability (NCI-H647; first compound 0.000632 µM) of 0.322 and a relative viability (NCI-H647; first compound 0.002 µM) of 0.133. The relative viability (NCI-H647; first compound 0.006325 µM) was 0.106, the relative viability (NCI-H647; first compound 0.02 µM) was 0.0836 and the relative viability (SW 1573; first compound 0.0002 µM) was 0.311. For the same molecule, the relative viability (SW 1573; first compound 0.000632 µM) was 0.344, the relative viability (SW 1573; first compound 0.002 µM) was 0.159 and the relative viability (SW 1573; first compound 0.02 µM) was 0.119.
